Like-named read-outs stand apart in the source and are kept apart here.
Key:
CYP1A2 = target: T1, CYP1A2 (Homo sapiens, UniProt P05177); test: CYP inhibition assay, human liver microsomes, substrate tacrine; format: in vitro ADME; conditions: human liver microsomes, 10 min incubation, LC-MS/MS; read-out: CYP Inhibition Activity (IC50/nM) CYP1A2
T1 construct: from tissue; host or cells: human liver microsomes
T1 sequence (P05177 1-516): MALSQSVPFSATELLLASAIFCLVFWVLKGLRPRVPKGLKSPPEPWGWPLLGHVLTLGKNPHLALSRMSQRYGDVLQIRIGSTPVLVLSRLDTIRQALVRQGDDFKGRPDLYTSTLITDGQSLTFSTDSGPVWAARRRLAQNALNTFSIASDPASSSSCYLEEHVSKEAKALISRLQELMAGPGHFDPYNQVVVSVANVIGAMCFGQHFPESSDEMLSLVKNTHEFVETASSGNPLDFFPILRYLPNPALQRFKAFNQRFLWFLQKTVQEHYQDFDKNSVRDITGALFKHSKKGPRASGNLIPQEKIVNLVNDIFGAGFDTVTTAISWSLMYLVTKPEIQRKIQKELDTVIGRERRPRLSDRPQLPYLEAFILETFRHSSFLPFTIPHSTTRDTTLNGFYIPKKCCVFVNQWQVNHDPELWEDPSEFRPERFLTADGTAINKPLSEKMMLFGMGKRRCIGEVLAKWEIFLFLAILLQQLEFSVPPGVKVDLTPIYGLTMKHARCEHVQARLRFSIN
Description: (§1) 2 μL of test compound/Positive Inhibitor working solutions is then added to the reaction plate (2 μL/well). For control, 2 μL of Acetonitrile (ACN) containing DMSO (without inhibitor) is added to the reaction plate. 20 μL of substrate pool is added to all the wells of the reaction plate. The samples are mixed in a vortexer and pre-incubated at 37° C. for 20 min. The NADPH solution is pre-warmed at 37° C. for 5 min. 20 μL of pre-warmed NADPH solution is added to the reaction plate and then incubated at 37° C. for 10 min. The reaction is terminated by adding cold ACN (200 μL/well) to the reaction mixture and centrifuging at 4,000 rpm for 20 minutes. After centrifugation, supernatant is separated and analyzed by LC-MS/MS.
(§2) % inhibition and IC50 are calculated using Graphpad Prism software.

SRPK1 = SRPK1 (Homo sapiens, UniProt Q96SB4); test: In vitro SRPK1 assay (Kinase-Glo); format: biochemical
Sequence of SRPK1 (Q96SB4 whole entry, species assumed): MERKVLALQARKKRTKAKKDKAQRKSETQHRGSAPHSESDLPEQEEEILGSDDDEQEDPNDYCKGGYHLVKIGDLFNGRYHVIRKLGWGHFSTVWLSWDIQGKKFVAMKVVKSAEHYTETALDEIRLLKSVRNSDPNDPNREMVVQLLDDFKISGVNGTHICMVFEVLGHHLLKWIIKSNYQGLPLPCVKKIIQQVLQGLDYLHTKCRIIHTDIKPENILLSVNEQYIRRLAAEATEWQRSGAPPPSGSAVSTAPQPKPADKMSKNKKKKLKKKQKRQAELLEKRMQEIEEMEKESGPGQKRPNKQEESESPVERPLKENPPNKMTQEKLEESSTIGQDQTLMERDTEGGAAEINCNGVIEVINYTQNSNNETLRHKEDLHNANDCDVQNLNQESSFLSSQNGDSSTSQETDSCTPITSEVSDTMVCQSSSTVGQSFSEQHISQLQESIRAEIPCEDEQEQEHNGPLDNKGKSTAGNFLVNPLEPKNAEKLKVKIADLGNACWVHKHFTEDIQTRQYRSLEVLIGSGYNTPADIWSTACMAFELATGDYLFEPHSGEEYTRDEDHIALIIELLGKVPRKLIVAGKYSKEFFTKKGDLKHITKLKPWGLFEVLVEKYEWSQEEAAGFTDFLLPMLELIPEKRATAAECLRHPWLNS

CYP2C19 = target: T2, CYP2C19 (Homo sapiens, UniProt P33261); test: CYP inhibition assay, human liver microsomes, substrate S-mephenytoin; format: in vitro ADME; conditions: human liver microsomes, 10 min incubation, LC-MS/MS; read-out: CYP Inhibition Activity (IC50/nM) CYP2C19
T2 construct: from tissue; host or cells: human liver microsomes
T2 sequence (P33261 whole entry): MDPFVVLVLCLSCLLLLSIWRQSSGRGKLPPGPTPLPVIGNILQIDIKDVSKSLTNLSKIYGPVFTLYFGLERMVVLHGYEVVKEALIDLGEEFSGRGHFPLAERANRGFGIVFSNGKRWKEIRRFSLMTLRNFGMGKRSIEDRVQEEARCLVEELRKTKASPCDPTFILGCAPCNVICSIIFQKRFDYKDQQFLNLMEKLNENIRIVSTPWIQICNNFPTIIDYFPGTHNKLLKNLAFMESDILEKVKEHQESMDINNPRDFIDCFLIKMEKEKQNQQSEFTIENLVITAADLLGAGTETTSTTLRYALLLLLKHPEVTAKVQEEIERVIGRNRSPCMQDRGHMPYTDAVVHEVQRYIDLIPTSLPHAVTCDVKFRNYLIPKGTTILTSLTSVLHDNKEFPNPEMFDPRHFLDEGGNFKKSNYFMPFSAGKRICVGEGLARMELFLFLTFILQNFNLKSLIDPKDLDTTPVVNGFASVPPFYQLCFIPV
Description: as §1, §2

CYP2C9 = target: T3, CYP2C9 (Homo sapiens, UniProt P11712); test: CYP inhibition assay, human liver microsomes, substrate diclofenac; format: in vitro ADME
T3 construct: from tissue; host or cells: human liver microsomes
T3 sequence (P11712 whole entry): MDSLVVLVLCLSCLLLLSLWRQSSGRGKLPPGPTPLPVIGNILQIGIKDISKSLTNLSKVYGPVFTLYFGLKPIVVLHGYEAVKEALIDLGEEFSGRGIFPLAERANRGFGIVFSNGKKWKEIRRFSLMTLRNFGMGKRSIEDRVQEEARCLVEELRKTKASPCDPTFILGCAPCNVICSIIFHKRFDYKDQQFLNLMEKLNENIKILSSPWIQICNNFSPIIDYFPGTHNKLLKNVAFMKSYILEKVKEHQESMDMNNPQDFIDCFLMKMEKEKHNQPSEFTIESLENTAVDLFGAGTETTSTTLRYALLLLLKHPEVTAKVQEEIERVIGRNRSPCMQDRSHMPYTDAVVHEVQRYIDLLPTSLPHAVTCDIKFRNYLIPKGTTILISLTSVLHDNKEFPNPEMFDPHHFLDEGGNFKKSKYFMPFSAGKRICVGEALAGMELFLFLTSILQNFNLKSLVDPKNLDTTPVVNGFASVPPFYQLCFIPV
Description: as §1, §2

CYP2D6 = target: T4, CYP2D6 (Homo sapiens, UniProt P10635); test: biochemical; format: in vitro ADME
T4 construct: from tissue; host or cells: human liver microsomes
T4 sequence (P10635 whole entry): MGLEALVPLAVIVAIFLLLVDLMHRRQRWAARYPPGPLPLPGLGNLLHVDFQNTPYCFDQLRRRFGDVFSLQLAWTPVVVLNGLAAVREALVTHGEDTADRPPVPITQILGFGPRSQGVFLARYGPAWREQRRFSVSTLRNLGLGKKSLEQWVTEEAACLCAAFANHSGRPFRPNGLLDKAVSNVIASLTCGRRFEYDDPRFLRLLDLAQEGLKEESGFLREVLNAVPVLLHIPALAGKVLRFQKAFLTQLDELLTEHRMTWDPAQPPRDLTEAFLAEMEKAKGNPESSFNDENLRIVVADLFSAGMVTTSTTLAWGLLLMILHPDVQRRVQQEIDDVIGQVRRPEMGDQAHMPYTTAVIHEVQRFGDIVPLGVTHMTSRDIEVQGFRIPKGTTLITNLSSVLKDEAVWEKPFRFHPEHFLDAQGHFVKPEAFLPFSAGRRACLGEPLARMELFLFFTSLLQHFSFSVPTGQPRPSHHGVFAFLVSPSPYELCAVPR
Description: 158 μL of Human Liver Microsomes working stock solution is added to a reaction plate (0.253 mg/mL, 158 μL/well). 2 μL of test compound/Positive Inhibitor working solutions is then added to the reaction plate (2 μL/well). For control, 2 μL of Acetonitrile (ACN) containing DMSO (without inhibitor) is added to the reaction plate. 20 μL of substrate pool is added to all the wells of the reaction plate. The samples are mixed in a vortexer and pre-incubated at 37° C. for 20 min. The NADPH solution is pre-warmed at 37° C. for 5 min. 20 μL of pre-warmed NADPH solution is added to the reaction plate and then incubated at 37° C. for 10 min. The reaction is terminated by adding cold ACN (200 μL/well) to the reaction mixture and centrifuging at 4,000 rpm for 20 minutes. After centrifugation, supernatant is separated and analyzed by LC-MS/MS.
as §2

CYP3A4 = target: T5, CYP3A4 (Homo sapiens, UniProt P08684); test: CYP inhibition assay, human liver microsomes, substrate midazolam; format: in vitro ADME; conditions: human liver microsomes, 10 min incubation, LC-MS/MS; read-out: CYP Inhibition Activity (IC50/nM) CYP3A4
T5 construct: from tissue; host or cells: human liver microsomes
T5 sequence (P08684 whole entry): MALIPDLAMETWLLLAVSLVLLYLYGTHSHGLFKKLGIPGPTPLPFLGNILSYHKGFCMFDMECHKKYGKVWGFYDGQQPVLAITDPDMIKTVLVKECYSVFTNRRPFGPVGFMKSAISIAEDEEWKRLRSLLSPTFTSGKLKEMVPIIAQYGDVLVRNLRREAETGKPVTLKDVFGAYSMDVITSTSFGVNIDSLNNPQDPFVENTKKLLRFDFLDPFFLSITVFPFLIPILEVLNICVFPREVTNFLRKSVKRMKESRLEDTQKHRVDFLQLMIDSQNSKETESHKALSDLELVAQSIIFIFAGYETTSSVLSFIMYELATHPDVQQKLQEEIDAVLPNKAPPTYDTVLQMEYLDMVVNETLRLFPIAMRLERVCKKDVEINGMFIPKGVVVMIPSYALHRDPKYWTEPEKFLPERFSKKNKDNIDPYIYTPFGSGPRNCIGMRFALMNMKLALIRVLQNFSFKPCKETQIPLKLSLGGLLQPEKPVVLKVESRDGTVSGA
Description: as §1, §2

[1] = human liver microsomes, 10 min incubation, LC-MS/MS, read-out: CYP Inhibition Activity (IC50/nM) CYP2C9

| IC50 (CYP1A2) [nM] | IC50 (SRPK1) [nM] | IC50 (CYP2C19) [nM] | IC50 (CYP2C9; [1]) [nM] | IC50 (CYP2D6) [nM] | IC50 (CYP3A4) [nM] | Structure (SMILES) | IC50 (CYP2C9) [nM] | IC50 (CYP2D6; human liver microsomes, 10 min incubation, LC-MS/MS, read-out: CYP Inhibition Activity (IC50/nM) CYP2D6) [nM] |
| --- | --- | --- | --- | --- | --- | --- | --- | --- |
| 19000 | 7.3 | 7700 | 3800 | 25900 | 7700 | CC1(O)CCN(c2ccc(C(F)F)cc2NC(=O)c2ccc(C3CCOCC3)o2)CC1 [Example 14, N-(5-(difluoromethyl)-2-(4-hydroxy-4-methyl-piperidin-1-yl)phenyl)-5-(tetrahydro-2H-pyran-4-yl)furan-2-carboxamide] |  |  |
| 6270 | 5.2 | 7690 | 2970 | 19100 | 10600 | COc1ccc(N2CCC(C)(O)CC2)c(NC(=O)c2ccc(C3CCOCC3)o2)c1 [Example 15, N-(2-(4-hydroxy-4-methylpiperidin-1-yl)-5-methoxyphenyl)-5-(tetrahydro-2H-pyran-4-yl)furan-2-carboxamide] |  |  |
| 5890 | 25 | 18200 | 13500 | > 30000 | 10000 | CC1(O)CCN(c2ccc(Cl)cc2NC(=O)c2ccccn2)CC1 [Example 2, N-(5-chloro-2-(4-hydroxy-4-methylpiperidin-1-yl)-phenyl)picolinamide] |  |  |
| 550 | 30 | 100 | 410 | 660 | 1430 | O=C(Nc1cc(Cl)ccc1N1CCCC(O)CC1)c1ccc(-c2ccncc2)o1 (racemic) [Example 45, N-(5-chloro-2-(4-hydroxyazepan-1-yl)phenyl)-5-(pyridin-4-yl)furan-2-carboxamide] |  |  |
| > 30000 | 43 | 21700 | 800 | > 30000 | 20700 | COc1ccc(N2CCC(C)(C(=O)N(C)C)CC2)c(NC(=O)c2ccc(C3CCOCC3)o2)c1 [Example 85, 1-(4-methoxy-2-(5-(tetrahydro-2H-pyran-4-yl)furan-2-carboxamido)phenyl)-N,N,4-trimethyl-piperidine-4-carboxamide] |  |  |
| > 30000 | 28 | 25700 | 13700 | 24300 | 29500 | CN(C)CC1(C)CCN(c2ccc(C3CC3)cc2NC(=O)c2ccc(C3CCOCC3)o2)CC1 [Example 93, N-(5-cyclopropyl-2-(4-((dimethylamino)methyl)-4-methylpiperidin-1-yl)phenyl)-5-(tetrahydro-2H-pyran-4-yl)furan-2-carboxamide] |  |  |
| > 30000 | 6 | 2700 | 200 | 8100 | 9400 | CC1(CN2CCOCC2)CCN(c2ccc(C(F)(F)F)cc2NC(=O)c2ccc(C3CCOCC3)o2)CC1 [Example 97, N-(2-(4-methyl-4-(morpholinomethyl)piperidin-1-yl)-5-(trifluoromethyl)phenyl)-5-(tetrahydro-2H-pyran-4-yl)furan-2-carboxamide] |  |  |
| > 30000 | 9.8 | > 30000 | 14000 | > 30000 | > 30000 | CC1(C)CCN(c2ccc(Cl)cc2NC(=O)c2ccc(C3CCOCC3)o2)CC1 [Example 65, N-(5-chloro-2-(4,4-dimethylpiperidin-1-yl)phenyl)-5-(tetrahydro-2H-pyran-4-yl)furan-2-carboxamide] |  |  |
| > 30000 | 5.6 | 1870 | 690 | 1610 | 470 | CNC(=O)C1(C)CCN(c2ccc(C(F)(F)F)cc2NC(=O)c2ccc(-c3ccncc3)o2)CC1 [Example 73, N,4-dimethyl-1-(2-(5-(pyridin-4-yl)furan-2-carboxamido)-4-(trifluoromethyl)phenyl)-piperidine-4-carboxamide] |  |  |
| 8130 | 0.5 | 2180 | 660 | 5130 | 670 | CC1(O)CCN(c2ccc(Cl)cc2NC(=O)c2ccc(-c3ccncc3)o2)CC1 [Example 5, N-(5-chloro-2-(4-hydroxy-4-methylpiperidin-1-yl)phenyl)-5-(pyridin-4-yl)furan-2-carboxamide] |  |  |
| > 30000 | 3.2 | > 30000 | 24300 | 3200 | 21000 | CN(C)CC1(C)CCN(c2ccc(C(F)(F)F)cc2NC(=O)c2ccc(C3CCOCC3)o2)CC1 [Example 83, N-(2-(4-((dimethylamino)methyl)-4-methyl-piperidin-1-yl)-5-(trifluoromethyl)phenyl)-5-(tetrahydro-2H-pyran-4-yl)furan-2-carboxamide] |  |  |
| > 30000 | 17.4 | 15100 | 7600 | > 30000 | 23200 | Cc1ccc(N2CCC(C)(O)CC2)c(NC(=O)c2ccc(C3CCOCC3)o2)c1 [Example 13, N-(2-(4-hydroxy-4-methylpiperidin-1-yl)-5-methylphenyl)-5-(tetrahydro-2H-pyran-4-yl)furan-2-carboxamide] |  |  |
| 5300 | 28.8 | 24500 | 9000 | > 30000 | > 30000 | C[C@@]1(O)CCN(c2ccc(C(F)(F)F)cc2NC(=O)c2ccc(C3CCOCC3)o2)C1 [Example 50, (R)-N-(2-(3-hydroxy-3-methylpyrrolidin-1-yl)-5-(trifluoromethyl)phenyl)-5-(tetrahydro-2H-pyran-4-yl)furan-2-carboxamide] |  |  |
| > 30000 | 71 | 22600 | > 30000 | > 30000 | > 30000 | CC1(O)CCN(c2ccc(Cl)cc2NC(=O)c2ccc(C3CCOCC3)o2)C1 (racemic) [Example 60, N-(5-chloro-2-(3-hydroxy-3-methylpyrrolidin-1-yl)phenyl)-5-(tetrahydro-2H-pyran-4-yl)furan-2-carboxamide] |  |  |
| > 30000 | 23 | 8000 | 600 | 12400 | 2200 | CN(C)C(=O)C1(C)CCN(c2ccc(Cl)cc2NC(=O)c2ccc(C3CCOCC3)o2)CC1 [Example 84, 1-(4-chloro-2-(5-(tetrahydro-2H-pyran-4-yl)furan-2-carboxamido)phenyl)-N,N,4-trimethyl-piperidine-4-carboxamide] |  |  |
| 4360 | 216 | 540 | 200 | 150 | 1190 | C[C@@]1(O)CCN(c2ccc(C(F)(F)F)cc2NC(=O)c2ccc(-c3ccncc3)o2)C1 [Example 52, (R)-N-(2-(3-hydroxy-3-methylpyrrolidin-1-yl)-5-(trifluoromethyl)phenyl)-5-(pyridin-4-yl)furan-2-carboxamide] |  |  |

| Structure (SMILES) | IC50 (CYP1A2) [nM] | IC50 (SRPK1) [nM] | IC50 (CYP2C19) [nM] | IC50 (CYP2C9; [1]) [nM] | IC50 (CYP2D6) [nM] | IC50 (CYP3A4) [nM] | IC50 (CYP2C9) [nM] | IC50 (CYP2D6; human liver microsomes, 10 min incubation, LC-MS/MS, read-out: CYP Inhibition Activity (IC50/nM) CYP2D6) [nM] |
| --- | --- | --- | --- | --- | --- | --- | --- | --- |
| O=C(Nc1cc(C(F)(F)F)ccc1N1CCC2(CCCC2)CC1)c1ccc(C2CCOCC2)o1 [Example 98, N-(2-(8-azaspirol4.51decan-8-yl)-5-(trifluoromethyl)phenyl)-5-(tetrahydro-2H-pyran-4-yl)furan-2-carboxamide] | > 30000 | 7.5 | > 30000 |  |  | > 30000 | 18600 | > 30000 |
